Measurements taken from ChEMBL document CHEMBL1201862, “PubChem BioAssay data set” (2004).
The source made the active and inactive calls.

Assays:
[1] = target: Heat shock protein HSP 90-alpha (Homo sapiens, UniProt P07900); test: Luminescence-based dose response biochemical high throughput screening assay for inhibitors of the Heat Shock Protein 90 (HSP90). [Related pubchem assays: 1831 (Summary AID.), 1846 (Confirmation screen.), 1789 (Primary screen.)]
[2] = target: T1, Microphthalmia-associated transcription factor (Homo sapiens, UniProt O75030); test: reducers of TRPM1 reporter luminescence, concentration series – cell-based, SK-MEL-5, cherry-picked, set 3, MITF inhibitor project, dose response (AID 493073); assay type: functional;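 also: SK-MEL-5 melanoma cells with luciferase driven by the MITF target TRPM1 promoter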
T1 sequence (O75030 whole entry): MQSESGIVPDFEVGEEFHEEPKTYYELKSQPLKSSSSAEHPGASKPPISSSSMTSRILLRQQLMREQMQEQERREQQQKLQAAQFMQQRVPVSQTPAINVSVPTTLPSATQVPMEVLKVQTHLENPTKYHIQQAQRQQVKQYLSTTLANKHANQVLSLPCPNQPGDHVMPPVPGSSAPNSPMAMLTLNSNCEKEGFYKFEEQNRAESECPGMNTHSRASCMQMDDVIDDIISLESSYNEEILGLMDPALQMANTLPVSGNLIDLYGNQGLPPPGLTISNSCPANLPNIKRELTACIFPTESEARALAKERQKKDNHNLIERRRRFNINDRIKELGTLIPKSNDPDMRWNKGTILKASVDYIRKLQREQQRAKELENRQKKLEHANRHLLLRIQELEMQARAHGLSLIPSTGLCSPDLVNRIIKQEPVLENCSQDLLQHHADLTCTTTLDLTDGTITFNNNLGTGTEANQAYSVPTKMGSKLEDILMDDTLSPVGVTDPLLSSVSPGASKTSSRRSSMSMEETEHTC

[3] = tested on: Streptococcus sp. 'group A'; test: Streptococcus pyogenes SK(-)GAS viability under kanamycin – luminescence, BacTiterGlo, confirmation, counter-screen for streptokinase expression inhibitor project, dose response (AID 1900); assay type: functional, organism-based
[4] = viability of PTEN-deleted HCT116 cells – cell-based, HCT116 PTEN knockout, dose response (AID 1047); assay type: functional;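 also: HCT116 colon tumor cells with PTEN knocked out; cells exposed to compound for 60 hours before readout; potency for loss of cell viability measured by luminescence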
Streptococcus = test: GAS UMAA2166 growth inhibition – luminescence, BacTiterGlo, counter-screen for streptokinase expression inhibitor project, dose response (AID 1915); assay type: functional, organism-based;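 also: potency for reduction of bacterial viability or growth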
[5] = target: T2, Heat shock factor protein 1 (Mus musculus, UniProt P38532); test: enhancement of HSF1-driven luciferase signal – cell-based, NIH3T3, luminescence, dose retest, confirmation (AID 435004); assay type: functional;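 also: stress induced by proteasome inhibitor MG132 added 30 min after compound; luciferase reporter driven by HSF1 response element in NIH3T3 cells; actives raise luminescence as potentiators of the MG132 stress response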
T2 sequence (P38532 whole entry): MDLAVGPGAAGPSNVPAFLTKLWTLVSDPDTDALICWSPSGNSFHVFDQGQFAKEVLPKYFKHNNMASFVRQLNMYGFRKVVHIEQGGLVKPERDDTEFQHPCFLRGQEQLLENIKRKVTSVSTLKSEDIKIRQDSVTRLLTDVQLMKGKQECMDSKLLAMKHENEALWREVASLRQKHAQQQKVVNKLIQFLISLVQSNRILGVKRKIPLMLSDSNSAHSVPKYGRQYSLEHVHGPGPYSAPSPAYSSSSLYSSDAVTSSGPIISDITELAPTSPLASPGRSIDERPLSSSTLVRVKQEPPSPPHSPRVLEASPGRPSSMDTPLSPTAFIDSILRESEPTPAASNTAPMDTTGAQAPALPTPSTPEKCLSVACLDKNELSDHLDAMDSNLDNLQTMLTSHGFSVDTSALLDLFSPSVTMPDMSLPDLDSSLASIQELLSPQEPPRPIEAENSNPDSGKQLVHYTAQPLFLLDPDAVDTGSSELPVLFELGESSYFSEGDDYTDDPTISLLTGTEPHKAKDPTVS

BJ = test: growth inhibition of engineered Ras-driven BJ cells – cell-based, alamar blue fluorescence, cherrypicked samples, dose response (AID 2631); assay type: functional; conditions: Homo sapiens;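 also: confirmatory dose-response assay in RAS-dependent BJ fibroblasts engineered with TERT, LT and ST, with cytotoxicity read by fluorescence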
[6] = target: T3, Histone-lysine N-methyltransferase NSD2 (Homo sapiens, UniProt O96028); assay type: biochemical
T3 sequence (O96028 whole entry): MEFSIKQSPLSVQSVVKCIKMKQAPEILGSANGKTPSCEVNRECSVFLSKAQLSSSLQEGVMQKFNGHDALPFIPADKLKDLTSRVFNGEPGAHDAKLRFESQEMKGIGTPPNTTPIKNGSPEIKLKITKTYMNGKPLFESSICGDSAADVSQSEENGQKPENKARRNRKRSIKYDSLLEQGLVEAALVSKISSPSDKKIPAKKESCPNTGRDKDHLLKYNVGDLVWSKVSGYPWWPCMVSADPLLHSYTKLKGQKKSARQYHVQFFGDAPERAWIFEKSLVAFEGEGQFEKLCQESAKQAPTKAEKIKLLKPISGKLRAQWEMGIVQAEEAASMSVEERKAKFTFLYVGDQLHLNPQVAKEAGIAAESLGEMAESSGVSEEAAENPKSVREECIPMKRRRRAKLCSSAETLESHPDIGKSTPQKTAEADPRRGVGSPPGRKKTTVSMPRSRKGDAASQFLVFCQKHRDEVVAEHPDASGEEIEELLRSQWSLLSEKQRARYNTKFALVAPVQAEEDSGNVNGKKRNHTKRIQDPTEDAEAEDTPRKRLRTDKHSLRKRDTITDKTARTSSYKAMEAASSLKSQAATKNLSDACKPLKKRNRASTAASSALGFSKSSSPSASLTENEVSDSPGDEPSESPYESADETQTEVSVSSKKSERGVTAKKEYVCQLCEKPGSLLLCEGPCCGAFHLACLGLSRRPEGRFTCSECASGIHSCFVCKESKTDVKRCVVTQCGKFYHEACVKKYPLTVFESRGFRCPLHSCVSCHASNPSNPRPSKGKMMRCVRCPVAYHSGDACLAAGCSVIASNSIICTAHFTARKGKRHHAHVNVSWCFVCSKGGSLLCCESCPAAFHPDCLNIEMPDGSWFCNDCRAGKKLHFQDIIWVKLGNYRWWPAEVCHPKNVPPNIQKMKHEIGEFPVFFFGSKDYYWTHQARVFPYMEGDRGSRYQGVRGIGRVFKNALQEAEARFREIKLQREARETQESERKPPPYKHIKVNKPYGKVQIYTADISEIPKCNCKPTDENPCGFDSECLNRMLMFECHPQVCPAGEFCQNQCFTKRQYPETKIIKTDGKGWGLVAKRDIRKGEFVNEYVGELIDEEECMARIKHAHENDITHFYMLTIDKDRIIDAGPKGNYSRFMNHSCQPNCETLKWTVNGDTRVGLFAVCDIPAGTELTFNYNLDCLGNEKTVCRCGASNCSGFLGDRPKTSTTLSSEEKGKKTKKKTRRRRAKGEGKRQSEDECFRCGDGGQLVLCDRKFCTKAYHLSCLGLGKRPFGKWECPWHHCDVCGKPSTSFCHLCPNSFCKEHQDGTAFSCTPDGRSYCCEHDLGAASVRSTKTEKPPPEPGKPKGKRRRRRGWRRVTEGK

For O=C1c2cc(F)ccc2-n2c1nc1ccccc1c2=O, which IC50 [1] is on record?
Its IC50 is 0.433 µM (active).

What about the AC50 [2] of the same molecule?
The AC50 was 1.05 µM (active).

Which EC50 [3] does the source give for CCOC(=O)C1=C(c2ccc(OC)cc2)C(=O)c2ccccc2C1=O here?
Its EC50 is 1.51 µM (active).

What about the EC50 [4] of the same molecule?
Its EC50 is 3.57 µM (active).

And the IC50 [1]?
Its IC50 is 0.322 µM (active).

And the EC50 (Streptococcus)?
The EC50 was 6.2 µM (active).

And the EC50 [5]?
The EC50 was 52.2 µM (active).

And the EC50 (BJ)?
Its EC50 is 0.605 µM (active).

With COCCCNC(=O)c1ccc2c3c(onc13)-c1ccccc1C2=O as the molecule, how does the EC50 [5] read?
The EC50 was 3.48 µM (active).

What about the EC50 (BJ) of the same molecule?
Its EC50 is 4.11 µM (active).

And the AC50 [6]?
The AC50 was > 20 µM (inactive).

With O=C1C=C(N(CCO)Cc2ccccc2)c2ccccc2C1=O as the molecule, how does the AC50 [2] read?
The AC50 was 4.78 µM (active).

What about the AC50 [6] of the same molecule?
Its AC50 is 1.2 µM (active).

Which EC50 [4] does the source give for CCC(=O)OCCNc1cc(Sc2nccn2C)c2nonc2c1[N+](=O)[O-] here?
The EC50 was 4.83 µM (active).

What about the EC50 [5] of the same molecule?
The EC50 was 4.5 µM (active).

What about the AC50 [2] of the same molecule?
Its AC50 is 7.16 µM (active).

With CCCCn1c(NC(=O)c2ccccc2Cl)c(C#N)c2nc3ccccc3nc21 as the molecule, how does the IC50 [1] read?
Its IC50 is 6.15 µM (active).

And the AC50 [6]?
Its AC50 is 2.68 µM (active).

Which EC50 [4] does the source give for CCc1ccc(OCC(=O)N/N=C2\CC(=O)c3ccccc32)cc1 here?
The EC50 was 10.2 µM (active).

Which results are given for O=C1C(=O)c2ccccc2-c2ccccc21 [9,10-PHENANTHRENEQUINONE]?
EC50 [3]: 1.33 µM (active); EC50 (Streptococcus): 2.3 µM (active); EC50 (BJ): 2.74 µM (inconclusive)
